# Source: PubChem BioAssay (NCI)
#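 Protocol summary: plate cells (96-well), add compound at 5 concentrations, incubate 48 h, interpolate endpoints linearly. At the TGI there is no net growth.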
# Assays:
# Test in all cases: inhibition of tumour cell growth, NCI panel, 48 h
# KM20L2 colon = tested on: KM20L2 colon
# UACC-62 melanoma = tested on: UACC-62 melanoma
# OVCAR-8 ovarian = tested on: OVCAR-8 ovarian
# HCT-116 colon = tested on: HCT-116 colon
# RPMI-8226 leukemia = tested on: RPMI-8226 leukemia
# LXFL 529 NSCLC = tested on: LXFL 529 NSCLC
# U251 CNS = tested on: U251 CNS
# SK-OV-3 ovarian = tested on: SK-OV-3 ovarian
# HT29 colon = tested on: HT29 colon
# SNB-78 CNS = tested on: SNB-78 CNS
# DMS 273 small cell lung = tested on: DMS 273 small cell lung
# NCI-H23 lung = tested on: NCI-H23 lung
# NCI-H460 lung = tested on: NCI-H460 lung
# NCI-H522 lung = tested on: NCI-H522 lung
# 786-0 renal = tested on: 786-0 renal
# HOP-18 NSCLC = tested on: HOP-18 NSCLC
# ACHN renal = tested on: ACHN renal
# A498 renal = tested on: A498 renal
# NCI-H226 lung = tested on: NCI-H226 lung
# HOP-92 NSCLC = tested on: HOP-92 NSCLC
# DMS 114 small cell lung = tested on: DMS 114 small cell lung
# SK-MEL-28 melanoma = tested on: SK-MEL-28 melanoma
# M14 melanoma = tested on: M14 melanoma
# A549 NSCLC = tested on: A549 NSCLC
# SNB-19 CNS = tested on: SNB-19 CNS
# KM12 colon = tested on: KM12 colon
# CAKI-1 renal = tested on: CAKI-1 renal
# SF-268 CNS = tested on: SF-268 CNS
# OVCAR-4 ovarian = tested on: OVCAR-4 ovarian
# SK-MEL-5 melanoma = tested on: SK-MEL-5 melanoma
# HCT-15 colon = tested on: HCT-15 colon
# UO-31 renal = tested on: UO-31 renal
# HCC-2998 colon = tested on: HCC-2998 colon
# K-562 leukemia = tested on: K-562 leukemia
# SF-295 CNS = tested on: SF-295 CNS
# EKVX NSCLC = tested on: EKVX NSCLC
# SF-539 CNS = tested on: SF-539 CNS
# SW-620 colon = tested on: SW-620 colon
# OVCAR-3 ovarian = tested on: OVCAR-3 ovarian
# COLO 205 colon = tested on: COLO 205 colon
# IGROV1 ovarian = tested on: IGROV1 ovarian
# MOLT-4 leukemia = tested on: MOLT-4 leukemia
# SK-MEL-2 melanoma = tested on: SK-MEL-2 melanoma
# XF 498 CNS = tested on: XF 498 CNS
# DLD-1 colon = tested on: DLD-1 colon
# M19-MEL melanoma = tested on: M19-MEL melanoma
# OVCAR-5 ovarian = tested on: OVCAR-5 ovarian
# SN12C renal = tested on: SN12C renal
# TK-10 renal = tested on: TK-10 renal
# HOP-62 NSCLC = tested on: HOP-62 NSCLC
# RXF-631 renal = tested on: RXF-631 renal
# CCRF-CEM leukemia = tested on: CCRF-CEM leukemia
# SNB-75 CNS = tested on: SNB-75 CNS
# MALME-3M melanoma = tested on: MALME-3M melanoma
smiles,measurement,setting,value
c1ccc2c(c1)[nH]c1c2ncc2[nH]c3ccccc3c21,TGI,KM20L2 colon,12.5 µM
same,TGI,UACC-62 melanoma,3.36 µM
same,TGI,OVCAR-8 ovarian,17.2 µM
same,TGI,HCT-116 colon,3.35 µM
same,TGI,RPMI-8226 leukemia,6.27 µM
same,TGI,LXFL 529 NSCLC,13.2 µM
same,TGI,U251 CNS,5.64 µM
same,TGI,SK-OV-3 ovarian,28.7 µM
same,TGI,HT29 colon,11.1 µM
same,TGI,SNB-78 CNS,27.2 µM
same,TGI,DMS 273 small cell lung,9.39 µM
same,TGI,NCI-H23 lung,33.5 µM
same,TGI,NCI-H460 lung,5.44 µM
same,TGI,NCI-H522 lung,21 µM
same,TGI,786-0 renal,5.61 µM
same,TGI,HOP-18 NSCLC,14.9 µM
same,TGI,ACHN renal,16.3 µM
same,TGI,A498 renal,9.07 µM
same,TGI,NCI-H226 lung,49.1 µM
same,TGI,HOP-92 NSCLC,8.71 µM
same,TGI,DMS 114 small cell lung,6.69 µM
same,TGI,SK-MEL-28 melanoma,27.7 µM
same,TGI,M14 melanoma,7.99 µM
same,TGI,A549 NSCLC,22.6 µM
same,TGI,SNB-19 CNS,10.7 µM
same,TGI,KM12 colon,10.3 µM
same,TGI,CAKI-1 renal,13.7 µM
same,TGI,SF-268 CNS,36.8 µM
same,TGI,OVCAR-4 ovarian,3.79 µM
same,TGI,SK-MEL-5 melanoma,17.2 µM
same,TGI,HCT-15 colon,7.7 µM
same,TGI,UO-31 renal,8.79 µM
same,TGI,HCC-2998 colon,7.07 µM
same,TGI,K-562 leukemia,8.3 µM
same,TGI,SF-295 CNS,11.4 µM
same,TGI,EKVX NSCLC,33.1 µM
same,TGI,SF-539 CNS,7.21 µM
same,TGI,SW-620 colon,10.3 µM
same,TGI,OVCAR-3 ovarian,6.96 µM
same,TGI,COLO 205 colon,6.83 µM
same,TGI,IGROV1 ovarian,22.5 µM
same,TGI,MOLT-4 leukemia,8.96 µM
same,TGI,SK-MEL-2 melanoma,33.7 µM
same,TGI,XF 498 CNS,3.3 µM
same,TGI,DLD-1 colon,19.7 µM
same,TGI,M19-MEL melanoma,15.8 µM
same,TGI,OVCAR-5 ovarian,22.9 µM
same,TGI,SN12C renal,13.6 µM
same,TGI,TK-10 renal,20.1 µM
same,TGI,HOP-62 NSCLC,19.4 µM
same,TGI,RXF-631 renal,5.05 µM
same,TGI,CCRF-CEM leukemia,9.45 µM
same,TGI,SNB-75 CNS,12.1 µM
same,TGI,MALME-3M melanoma,47.1 µM
